From US6362212B1, “Oxime derivative and bactericide containing the same as active ingredient” (Shionogi & Company, Ltd., priority 1994, dated 2002) come the findings set out here.

Format in all cases: in vivo
The test system of one assay is Pyricularia oryzae. Conditions: foliage spray on rice seedlings (cv. […]), number of lesions six days after the inoculation.
Assay [1] relates to Erysiphe graminis f. sp. tritici. The experiment in a line: Controlling effect on Erysiphe graminis f. sp. tritici by foliage application (pot experiment). The settings on record: foliage spray on wheat (cv. NORIN No. 61) seedlings, infected area after 10 days in greenhouse at 20° C. How it is done: The following Test Examples illustrate the effects of the fungicide of the present invention. (I. Controlling effects on various plant diseases by foliage application (pot experiment)) A test compound was dissolved in a small amount of N,N-dimethylformamide, and the solution was diluted to a given concentration with distilled water containing a spreader. Thus, a liquid sample to be tested was prepared. The liquid sample was sprayed to test plants, and 24 hours thereafter, pathogens were inoculated by the method described below. […] The seeds of wheat (cv.: NORIN No. 61) were sown in plastic cups (each 9 cm in diameter), followed by cultivation for 2 to 3 weeks. The test compound in the form of a solution or suspension was sprayed to the seedlings, and conidia of Erysiphe graminis f. sp. tritici cultured on wheat leaves were dropped on the test plants to inoculate the plants with the pathogen. After the inoculation, the plants were kept in a greenhouse at 20° C. for 10 days. The infected area on the leaf was observed, and the percent control was calculated.

A further assay has as its system Sphaerotheca fuliginea. The experiment in a line: Controlling effect on Sphaerotheca fuliginea by foliage application (pot experiment). Conditions: foliage spray on cucumber (cv. TSUKUBASHIROIBO) first leaves, infected area after 10 days in greenhouse at 20° C. How it is done:
The following Test Examples illustrate the effects of the fungicide of the present invention. (I. Controlling effects on various plant diseases by foliage application (pot experiment)) A test compound was dissolved in a small amount of N,N-dimethylformamide, and the solution was diluted to a given concentration with distilled water containing a spreader. Thus, a liquid sample to be tested was prepared. The liquid sample was sprayed to test plants, and 24 hours thereafter, pathogens were inoculated by the method described below. […] Seeds of cucumber ([…]) were sown in plastic cups (each 9 cm in diameter), followed by cultivation for 2 to 3 weeks. The liquid test sample in the form of a solution or suspension was sprayed on the surface of their first leaves. The pathogen was inoculated to the leaves by spraying a conidia suspension of Sphaerotheca fuliginea which had been cultured on the cucumber leaves. After the inoculation, the plants were kept in a greenhouse at 20° C. for 10 days. Then, the infected area on the leaf was observed, and the percent control was calculated.

Consider `CON=C(C1=NCCN1)c1ccccc1COc1ccccc1C` [compound 1460], for which the “Controlling effect on PYricularia orYzae by foliage application at 500 ppm (percent control)” value in the assay with Pyricularia oryzae turned out to be 90 percent control. The “Controlling effect on ErYsiphe graminis f. sp. tritici by foliage application at 500 ppm (percent control)” value in assay [1] worked out at 90 percent control.
Regarding `CON=C(c1ccccc1COc1ccc(Cl)cc1C)c1nccn1C` (single isomer, unassigned) [141B], the “Controlling effect on Sphaerotheca fuliginea by foliage application at 500 ppm (percent control)” value in the assay on Sphaerotheca fuliginea came to 100 percent control. In addition, the “Controlling effect on PYricularia orYzae by foliage application at 500 ppm (percent control)” value in the assay on Pyricularia oryzae is listed as 70 percent control.
As for `CON=C(c1ccccc1COc1ccccc1OC)c1nccn1C` (single isomer, unassigned) [118B], in the assay with Pyricularia oryzae, the “Controlling effect on PYricularia orYzae by foliage application at 500 ppm (percent control)” value is given as 70 percent control.
On to `CON=C(c1ccccc1COc1ccccc1Cl)n1cnc(C)c1` [compound 225], for which the “Controlling effect on PYricularia orYzae by foliage application at 500 ppm (percent control)” value in the assay with Pyricularia oryzae is on record as 70 percent control.
In the case of `CON=C(c1ccccc1COc1ccccc1)n1cncn1` [compound 261], the “Controlling effect on Sphaerotheca fuliginea by foliage application at 500 ppm (percent control)” value in the assay on Sphaerotheca fuliginea is given as 97 percent control. Moreover, the “Controlling effect on PYricularia orYzae by foliage application at 500 ppm (percent control)” value in the assay on Pyricularia oryzae was found to be 70 percent control. Besides, the “Controlling effect on ErYsiphe graminis f. sp. tritici by foliage application at 500 ppm (percent control)” value in assay [1] was 97 percent control.
Turning to `CON=C(c1ccccc1COc1ccccc1)n1cnc(C)c1` [compound 221], the “Controlling effect on Sphaerotheca fuliginea by foliage application at 500 ppm (percent control)” value in the assay on Sphaerotheca fuliginea was determined as 97 percent control. The “Controlling effect on PYricularia orYzae by foliage application at 500 ppm (percent control)” value with Pyricularia oryzae is listed as 70 percent control. The “Controlling effect on ErYsiphe graminis f. sp. tritici by foliage application at 500 ppm (percent control)” value in assay [1] came to 70 percent control.
In the case of `CON=C(c1ccccc1Oc1ccccc1)n1cccn1` [compound 300], in the assay on Sphaerotheca fuliginea, the “Controlling effect on Sphaerotheca fuliginea by foliage application at 500 ppm (percent control)” value is listed as 70 percent control. In addition, the “Controlling effect on PYricularia orYzae by foliage application at 500 ppm (percent control)” value with Pyricularia oryzae is on record as 70 percent control.
With `CON=C(c1noc(C)n1)c1ccccc1COc1ccccc1C` [Compound No. 912], the “Controlling effect on Sphaerotheca fuliginea by foliage application at 500 ppm (percent control)” value in the assay with Sphaerotheca fuliginea amounted to 100 percent control. Also, in the assay with Pyricularia oryzae, the “Controlling effect on PYricularia orYzae by foliage application at 500 ppm (percent control)” value is listed as 70 percent control. Further, the “Controlling effect on ErYsiphe graminis f. sp. tritici by foliage application at 500 ppm (percent control)” value in assay [1] is on record as 90 percent control.
Consider `O=C1OCc2c(Cl)c(Cl)c(Cl)c(Cl)c21` [Fthalide, reference compound], for which the “Controlling effect on PYricularia orYzae by foliage application at 500 ppm (percent control)” value with Pyricularia oryzae is 97 percent control.
As for `CON=C(c1ncon1)c1ccccc1COc1ccccc1C` [Compound No. 812], the “Controlling effect on Sphaerotheca fuliginea by foliage application at 500 ppm (percent control)” value with Sphaerotheca fuliginea was found to be 100 percent control. For the same compound, in the assay with Pyricularia oryzae, the “Controlling effect on PYricularia orYzae by foliage application at 500 ppm (percent control)” value was 70 percent control. Moreover, the “Controlling effect on ErYsiphe graminis f. sp. tritici by foliage application at 500 ppm (percent control)” value in assay [1] was 100 percent control.
Consider `CON=C(c1ccccc1CON=C(C)c1ccccc1)n1ccnc1` [compound 3041], for which, in the assay with Sphaerotheca fuliginea, the “Controlling effect on Sphaerotheca fuliginea by foliage application at 500 ppm (percent control)” value turned out to be 97 percent control. Moreover, in the assay on Pyricularia oryzae, the “Controlling effect on PYricularia orYzae by foliage application at 500 ppm (percent control)” value was 90 percent control.
Consider `CCON=C(c1ccon1)c1ccccc1COc1cc(C)ccc1C` (mixture of isomers) [compound 1674], for which the “Controlling effect on Sphaerotheca fuliginea by foliage application at 500 ppm (percent control)” value with Sphaerotheca fuliginea came to 70 percent control. The “Controlling effect on PYricularia orYzae by foliage application at 500 ppm (percent control)” value with Pyricularia oryzae is 70 percent control. Besides, the “Controlling effect on ErYsiphe graminis f. sp. tritici by foliage application at 500 ppm (percent control)” value in assay [1] is 70 percent control.
Regarding `CON=C(c1ccccc1COc1ccccc1)n1ccnc1C` [compound 241], in the assay on Pyricularia oryzae, the “Controlling effect on PYricularia orYzae by foliage application at 500 ppm (percent control)” value worked out at 70 percent control.
On to `CON=C(C1=NCCO1)c1ccccc1COc1ccccc1C` [compound 1310], for which the “Controlling effect on Sphaerotheca fuliginea by foliage application at 500 ppm (percent control)” value in the assay on Sphaerotheca fuliginea was 90 percent control. For the same compound, the “Controlling effect on PYricularia orYzae by foliage application at 500 ppm (percent control)” value in the assay with Pyricularia oryzae came out at 70 percent control. Further, the “Controlling effect on ErYsiphe graminis f. sp. tritici by foliage application at 500 ppm (percent control)” value in assay [1] worked out at 90 percent control.
On to `CON=C(c1ccccc1COc1ccccc1)n1cccn1` [compound 281], for which the “Controlling effect on PYricularia orYzae by foliage application at 500 ppm (percent control)” value with Pyricularia oryzae is given as 70 percent control. Besides, in assay [1], the “Controlling effect on ErYsiphe graminis f. sp. tritici by foliage application at 500 ppm (percent control)” value is given as 90 percent control.
Regarding `CON=C(c1ccccc1COc1ccc(C)cc1)c1nccn1C` (single isomer, unassigned) [114A], the “Controlling effect on Sphaerotheca fuliginea by foliage application at 500 ppm (percent control)” value in the assay on Sphaerotheca fuliginea was found to be 100 percent control. For the same compound, the “Controlling effect on PYricularia orYzae by foliage application at 500 ppm (percent control)” value in the assay with Pyricularia oryzae is 90 percent control. In addition, in assay [1], the “Controlling effect on ErYsiphe graminis f. sp. tritici by foliage application at 500 ppm (percent control)” value is on record as 90 percent control.
On to `CON=C(c1ccccc1COc1cc(C)ccc1C)c1ccnn1C` (single isomer, unassigned) [1554A], for which the “Controlling effect on PYricularia orYzae by foliage application at 500 ppm (percent control)” value in the assay on Pyricularia oryzae amounted to 70 percent control. Moreover, in assay [1], the “Controlling effect on ErYsiphe graminis f. sp. tritici by foliage application at 500 ppm (percent control)” value worked out at 70 percent control.
On to `CON=C(C1=NCCN1)c1ccccc1COc1cccc(C)c1` (mixture of isomers) [compound 1461], for which, in the assay on Pyricularia oryzae, the “Controlling effect on PYricularia orYzae by foliage application at 500 ppm (percent control)” value is 70 percent control.
Take `CCON=C(c1ccccc1COc1ccccc1)n1cccn1` [compound 295]: the “Controlling effect on PYricularia orYzae by foliage application at 500 ppm (percent control)” value in the assay with Pyricularia oryzae was determined as 90 percent control. Also, in assay [1], the “Controlling effect on ErYsiphe graminis f. sp. tritici by foliage application at 500 ppm (percent control)” value is on record as 90 percent control.
`CON=C(c1nnco1)c1ccccc1COc1ccc(Cl)cc1` [compound 707]: in the assay on Sphaerotheca fuliginea, the “Controlling effect on Sphaerotheca fuliginea by foliage application at 500 ppm (percent control)” value is listed as 100 percent control. The “Controlling effect on ErYsiphe graminis f. sp. tritici by foliage application at 500 ppm (percent control)” value in assay [1] was 90 percent control.
For the compound `CON=C(c1ncno1)c1ccccc1COc1ccccc1` [compound 1581], the “Controlling effect on Sphaerotheca fuliginea by foliage application at 500 ppm (percent control)” value in the assay with Sphaerotheca fuliginea is 70 percent control. Further, in the assay on Pyricularia oryzae, the “Controlling effect on PYricularia orYzae by foliage application at 500 ppm (percent control)” value was 70 percent control.
For `CON=C(c1ccccc1COc1ccc(C)cc1)n1cncn1` [compound 270], the “Controlling effect on Sphaerotheca fuliginea by foliage application at 500 ppm (percent control)” value with Sphaerotheca fuliginea came to 97 percent control. The “Controlling effect on ErYsiphe graminis f. sp. tritici by foliage application at 500 ppm (percent control)” value in assay [1] was 90 percent control.
For the compound `CON=C(C1=NCCN1C)c1ccccc1Oc1ccccc1` (mixture of isomers) [compound 1161], the “Controlling effect on Sphaerotheca fuliginea by foliage application at 500 ppm (percent control)” value in the assay with Sphaerotheca fuliginea was found to be 70 percent control. Further, the “Controlling effect on ErYsiphe graminis f. sp. tritici by foliage application at 500 ppm (percent control)” value in assay [1] is listed as 90 percent control.
Turning to `CON=C(c1ccccc1COc1cc(C)ccc1C)n1ccnc1` [Compound No. 39], the “Controlling effect on Sphaerotheca fuliginea by foliage application at 500 ppm (percent control)” value in the assay with Sphaerotheca fuliginea is 100 percent control. Moreover, in the assay on Pyricularia oryzae, the “Controlling effect on PYricularia orYzae by foliage application at 500 ppm (percent control)” value was determined as 70 percent control.
As to `CON=C(c1ncon1)c1ccccc1COc1cc(C)ccc1C` (single isomer, unassigned) [836A], the “Controlling effect on Sphaerotheca fuliginea by foliage application at 500 ppm (percent control)” value in the assay with Sphaerotheca fuliginea is 100 percent control. Besides, the “Controlling effect on ErYsiphe graminis f. sp. tritici by foliage application at 500 ppm (percent control)” value in assay [1] is 97 percent control.
Regarding `CON=C(C1=NCCN1C)c1ccccc1COc1cccc(C(F)(F)F)c1` (single isomer, unassigned) [1122B], in the assay with Sphaerotheca fuliginea, the “Controlling effect on Sphaerotheca fuliginea by foliage application at 500 ppm (percent control)” value was 100 percent control. In addition, in assay [1], the “Controlling effect on ErYsiphe graminis f. sp. tritici by foliage application at 500 ppm (percent control)” value was 90 percent control.
On to `CON=C(c1ccccc1COc1ccc(Cl)cc1)n1cccn1` [compound 287], for which the “Controlling effect on PYricularia orYzae by foliage application at 500 ppm (percent control)” value in the assay on Pyricularia oryzae was determined as 90 percent control.
As for `CON=C(c1cc(C)no1)c1ccccc1COc1ccc(Cl)cc1C` (single isomer, unassigned) [641B], the “Controlling effect on Sphaerotheca fuliginea by foliage application at 500 ppm (percent control)” value with Sphaerotheca fuliginea is given as 100 percent control. Further, in assay [1], the “Controlling effect on ErYsiphe graminis f. sp. tritici by foliage application at 500 ppm (percent control)” value is 90 percent control.
Take `CON=C(c1cnco1)c1ccccc1COc1cc(C)ccc1C` [compound 1734]: the “Controlling effect on Sphaerotheca fuliginea by foliage application at 500 ppm (percent control)” value with Sphaerotheca fuliginea worked out at 90 percent control. Also, the “Controlling effect on ErYsiphe graminis f. sp. tritici by foliage application at 500 ppm (percent control)” value in assay [1] was 70 percent control.
Consider `CON=C(c1ccccc1COc1ccc(F)cc1)c1nccn1C` (single isomer, unassigned) [104A], for which the “Controlling effect on Sphaerotheca fuliginea by foliage application at 500 ppm (percent control)” value in the assay with Sphaerotheca fuliginea was determined as 97 percent control. Further, the “Controlling effect on ErYsiphe graminis f. sp. tritici by foliage application at 500 ppm (percent control)” value in assay [1] is reported as 90 percent control.
As to `CON=C(c1ccco1)c1ccccc1COc1cc(C)ccc1C` (single isomer, unassigned) [1634A], the “Controlling effect on Sphaerotheca fuliginea by foliage application at 500 ppm (percent control)” value in the assay with Sphaerotheca fuliginea is reported as 100 percent control. Also, in assay [1], the “Controlling effect on ErYsiphe graminis f. sp. tritici by foliage application at 500 ppm (percent control)” value was determined as 97 percent control.
